Publication PMC10610214 (Pharmaceuticals, 2023)

Assays:
[1] = molecular target: T1, AChE (from electric eel) (Electrophorus electricus, UniProt O42275); test: biochemical; conditions: for IC50: AChE from electric eel, mean ± SD of three experiments, read-out: AChE Inhibition (IC50); for Selective Index, IC50 (BChE)/IC50 (AChE): AChE selectivity index
T1 construct: AChE (from electric eel); purchased Sigma Chemical Company (St. Louis, MO, USA)
Experimental: (§1) The ChE inhibitory activity of the test compounds was determined using the modified Ellman’s method. The compounds were dissolved in DMSO (10 mmol/L) and then diluted with PB (phosphate buffer) solution to attain a range of final concentrations. […] Briefly, 100 μL of different concentrations of the test or standard compounds and 100 μL of AChE/BuChE (0.5 U/mL) were added into 48-well plates and then co-incubated at 37 °C for 30 min. […] All concentrations mentioned are final.

[2] = molecular target: T2, BuChE (from equine serum) (Equus caballus, UniProt P81908); test: biochemical; conditions: mean ± SD of three experiments, read-out: BuChE Inhibition (IC50)
T2 construct: BuChE (from equine serum); purchased Sigma Chemical Company (St. Louis, MO, USA); host or cells: equine serum
T2 sequence (P81908 whole entry): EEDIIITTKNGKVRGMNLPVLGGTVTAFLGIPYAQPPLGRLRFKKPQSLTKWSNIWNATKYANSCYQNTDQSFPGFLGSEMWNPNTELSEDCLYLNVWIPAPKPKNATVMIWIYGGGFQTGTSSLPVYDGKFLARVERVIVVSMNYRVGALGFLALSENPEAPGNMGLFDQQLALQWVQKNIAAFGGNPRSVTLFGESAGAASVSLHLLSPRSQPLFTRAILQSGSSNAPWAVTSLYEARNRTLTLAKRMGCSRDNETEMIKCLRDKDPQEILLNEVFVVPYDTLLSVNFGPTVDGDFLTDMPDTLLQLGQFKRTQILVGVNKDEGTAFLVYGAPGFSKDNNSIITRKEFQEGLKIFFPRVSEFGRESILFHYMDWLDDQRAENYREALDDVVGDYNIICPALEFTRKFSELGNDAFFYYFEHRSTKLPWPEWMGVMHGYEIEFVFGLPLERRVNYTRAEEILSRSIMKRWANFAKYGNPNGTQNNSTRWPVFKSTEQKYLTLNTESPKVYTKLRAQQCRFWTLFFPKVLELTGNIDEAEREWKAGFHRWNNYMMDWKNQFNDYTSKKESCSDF
Experimental: as §1

[3] = test system: H2O2-induced PC12 cells; test: Neuroprotection against H2O2-induced PC12 cell injury (MTT); format: cell-based; conditions: H2O2 250 μM, mean ± SEM
Experimental: Neuroprotection assay is similar to cytotoxicity. Oxidative cellular damage caused by H2O2 has become one of the important methods to study oxidative damage in neural cells. PC12 cells were seeded into a 96-well plate at a density of 5.0 × 10^3 cells per well. After the cells were incubated overnight, the old medium was discarded. […] After incubating overnight, 20 μL of MTT solution (5 mg/mL, Sigma-Aldrich) was added per well, and the cells were incubated for an additional 4 h. Afterwards, the supernatant was removed and 150 μL of DMSO was added. The 96-well plate was placed on the shaker for 10–15 min, and then the absorbance at 492 nm was measured by a microplate reader.

[4] = test system: PC12 cells; test: Cytotoxicity in PC12 cells (MTT); format: cell-based
Experimental: The cytotoxicity and neuroprotective effects of the compounds on PC12 cells were evaluated by MTT assay. PC12 cells were seeded into a 96-well plate at a density of 5.0 × 10^3 cells per well. After the cells were incubated overnight, the old medium was discarded. The cells were incubated for another 24 h with fresh medium containing compounds at a concentration of 30 or 50 μM. A total of 20 μL of MTT solution (5 mg/mL, Sigma-Aldrich, Shanghai, China) was then added per well, and the cells were incubated for an additional 4 h. Afterwards, the supernatant was removed and 150 μL of DMSO was added to solubilize formazan crystals. The 96-well plate was placed on the shaker for 10–15 min, and then the absorbance at 492 nm was measured by a microplate reader.

T1 sequence (O42275 24-633): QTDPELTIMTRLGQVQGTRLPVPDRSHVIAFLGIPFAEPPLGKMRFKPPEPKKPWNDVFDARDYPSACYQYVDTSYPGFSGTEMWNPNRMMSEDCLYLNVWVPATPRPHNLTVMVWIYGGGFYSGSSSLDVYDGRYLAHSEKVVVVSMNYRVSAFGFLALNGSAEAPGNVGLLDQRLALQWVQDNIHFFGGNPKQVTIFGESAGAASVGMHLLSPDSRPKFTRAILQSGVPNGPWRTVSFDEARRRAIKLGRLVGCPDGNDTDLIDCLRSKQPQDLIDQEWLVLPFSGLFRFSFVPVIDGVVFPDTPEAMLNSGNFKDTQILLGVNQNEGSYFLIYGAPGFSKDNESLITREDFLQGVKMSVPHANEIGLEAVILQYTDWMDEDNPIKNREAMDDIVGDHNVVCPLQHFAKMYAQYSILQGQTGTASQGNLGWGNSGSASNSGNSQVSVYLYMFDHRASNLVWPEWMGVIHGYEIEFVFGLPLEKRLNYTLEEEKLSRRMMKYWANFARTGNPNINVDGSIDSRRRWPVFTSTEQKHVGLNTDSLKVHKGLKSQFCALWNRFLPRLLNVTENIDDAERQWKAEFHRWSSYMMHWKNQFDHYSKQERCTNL

| Structure (SMILES) | IC50 [1] [µM] | Selective Index, IC50 (BChE)/IC50 (AChE) [1] | IC50 [2] [µM] | H2O2-Induced PC12 Cell Viability (% of Control) ([3]; compound 10 μM) | H2O2-Induced PC12 Cell Viability (% of Control) ([3]; compound 30 μM) | Cell Viability (% of Control) ([4]; compound 30 μM) | Cell Viability (% of Control) ([4]; compound 50 μM) |
| --- | --- | --- | --- | --- | --- | --- | --- |
| O=C1c2cc(NS(=O)(=O)c3ccccc3)ccc2-n2c1nc1ccccc1c2=O [4a] | 0.97 ± 0.16 | 10.3 | 9.98 ± 0.64 | 43.29 ± 3.1 % of Control | 48.5 ± 1.5 % of Control | 99.5 ± 1.7 % of Control | 98.3 ± 3.0 % of Control |
| Cc1ccc(S(=O)(=O)Nc2ccc3c(c2)C(=O)c2nc4ccccc4c(=O)n2-3)cc1 [4b] | 5.75 ± 0.27 | 1.5 | 8.61 ± 1.2 | 47.36 ± 1.7 % of Control | 59.09 ± 2.5 % of Control | 99.7 ± 0.9 % of Control | 99.5 ± 1.5 % of Control |
| CC(C)(C)c1ccc(S(=O)(=O)Nc2ccc3c(c2)C(=O)c2nc4ccccc4c(=O)n2-3)cc1 [4c] | 2.56 ± 0.32 | 3.2 | 8.13 ± 1.21 | 45.59 ± 0.7 % of Control | 56.4 ± 1.2 % of Control | 99.5 ± 3.1 % of Control | 98.2 ± 1.7 % of Control |
| CC(C)c1cc(C(C)C)c(S(=O)(=O)Nc2ccc3c(c2)C(=O)c2nc4ccccc4c(=O)n2-3)c(C(C)C)c1 [4d] | > 50 | – | > 50 | 42.53 ± 2.7 % of Control | 50.1 ± 0.8 % of Control | 99.4 ± 2.4 % of Control | 97.3 ± 3.6 % of Control |
| O=C1c2cc(NS(=O)(=O)c3ccc(Br)cc3)ccc2-n2c1nc1ccccc1c2=O [4e] | 33 ± 1.91 | – | > 50 | 42.8 ± 1.5 % of Control | 57.51 ± 0.8 % of Control | 99.6 ± 2.1 % of Control | 99.5 ± 2.3 % of Control |
| O=C1c2cc(NS(=O)(=O)c3ccc(F)cc3)ccc2-n2c1nc1ccccc1c2=O [4f] | 0.56 ± 0.07 | 21.2 | 11.9 ± 1.86 | 45.23 ± 2.2 % of Control | 55.26 ± 0.5 % of Control | 99.4 ± 1.6 % of Control | 98.7 ± 1.1 % of Control |
| O=C1c2cc(NS(=O)(=O)c3cccc(F)c3)ccc2-n2c1nc1ccccc1c2=O [4g] | 3.21 ± 0.39 | 6.7 | 21.6 ± 1.79 | 59.88 ± 0.9 % of Control | 68.83 ± 2.7 % of Control | 100 ± 1.3 % of Control | 99.7 ± 0.8 % of Control |
| CC(=O)Nc1ccc(S(=O)(=O)Nc2ccc3c(c2)C(=O)c2nc4ccccc4c(=O)n2-3)cc1 [4i] | 8.8 ± 1.23 | – | > 50 | 34.43 ± 5.5 % of Control | 40.93 ± 2.9 % of Control | 99.6 ± 1.7 % of Control | 98.3 ± 3.0 % of Control |
| COc1ccc(S(=O)(=O)Nc2ccc3c(c2)C(=O)c2nc4ccccc4c(=O)n2-3)cc1 [4j] | > 50 | – | > 50 | 38.24 ± 3.1 % of Control | 41.69 ± 1.7 % of Control | 99.7 ± 1.6 % of Control | 99.1 ± 1.2 % of Control |
| O=c1c(O)c(-c2ccc(O)c(O)c2)oc2cc(O)cc(O)c12 [Quercetin, reference compound] | – | – | – | 55.21 ± 1.6 % of Control | 63.27 ± 2.1 % of Control | 99.6 ± 1.1 % of Control | 99.5 ± 1.3 % of Control |
